Consider five compounds from patent US20220347299A1, “FLUORESCENT SYSTEMS FOR BIOLOGICAL IMAGING AND USES THEREOF” (LIGHTOX LIMITED, priority 2019, published 2022).

Molecules are shown by their SMILES.

The nature of data set [1]: Peak absorption and fluorescence emission wavelengths in solvents. It is filed as physicochemical. The note with it: for λem(max)/nm: 100 nM, excitation at peak of absorption; for λabs(max)/nm: 10 μM. Here is the method: Peak absorption and fluorescence emission wavelengths of compounds 6, 7, 12, 13, 14, 15, 19, 23, 27, 30 and 34 were measured in a variety of solvents, and the results are shown in Table 1. Absorption measurements were recorded at a concentration of 10 μM, and emission measurements were recorded at a concentration of 100 nM. Emission spectra were recorded with excitation at the peak of absorption (S0→S1).

The test system of data set [2] is HaCaT keratinocytes. Kind of data set: Co-staining with organelle markers, co-localisation (PCC). It is filed as cell-based. Particulars: 1 μM compound, 30 minutes, BODIPY ER-Tracker Red. As for the experimental part: To study the localisation of compounds in biological cells, co-staining of compounds of formula I with specific organelle markers (fluorescent dyes and antibodies) within biological cells was conducted. The following compounds were studied: compounds 6, 7, 12, 13, 14 and 15. HaCaT keratinocyte cell lines were used for the following experimental procedures. The cells were incubated in cell culture media (94% Dulbecco's Modified Eagle Medium (DMEM), 5% Foetal Bovine Serum (FBS) and 1% Penicillin Streptomycin solution (Pen-Strep). The cells were plated in 8-well plates, at a concentration of 25,000 cells per ml. 200 μl of cell suspension was added to each well, and the cells were incubated for 2 days before staining and imaging was carried out. In order to visualise the mitochondria, cells were probed with the mitochondrial dye MitoTracker® Deep Red. Cells to be stained were incubated with 200 μl MitoTracker® Deep Red solution (200 nM MitoTracker® and 1 μM Formula I compound in cell culture media) per well (N=3) for 30 minutes. Nile Red was used to identify lipids within the cells. 200 μl Nile Red Lipophilic dye (10 μg/ml Nile Red and 1 μM Formula I compound in cell culture media) was added to each well (N=3) and incubated for 30 minutes. For the detection of lysosomes within the cells, LysoTracker® Red DND-99 dye was used. 200 μl LysoTracker® Red DND-99 (50 nM LysoTracker® and 1 μM Formula I compound solution in cell culture media) was added to each well (N=3) and incubated for 30 minutes. For visualisation of the endoplasmic reticulum (ER), cells were stained with BODIPY® ER-Tracker® Red. 200 μl BODIPY ER-Tracker® Red (1 μM BODIPY® and 1 μM Formula I compound solution in cell culture media) was added to each well (N=3) and incubated for 30 minutes. Following incubation, the cell culture media containing dye was removed, and cells were washed twice with 200 μl phosphate buffered saline (PBS). After washing, 200 μl PBS was added into each well for imaging. For visualisation of the nuclear lamina, cells were probed with an anti-lamin A/C antibody. The cells were plated on 22×22 mm cover slips (10,000 cells/ml) and incubated for 2 days before staining. The cells were washed with PBS to remove excess media before staining. The cells were fixed with 4% paraformaldehyde (PFA) for 10 minutes at room temperature, before being washed twice in PBS for 5 minutes. Following washing, the cells were permeabilised in 0.4% Triton X-100 in PBS for 10 minutes. The cells were subsequently washed three times in PBS for 5 minutes, before being incubated in blocking buffer (1% BSA, 0.1% fish gelatine and 0.1% Triton X-100 in PBS) for 15 minutes at room temperature. The cells were incubated in primary antibody (mouse anti-lamin A/C IgG in blocking buffer) for 1 hour at room temperature. The cells were then washed twice in blocking buffer and incubated in secondary antibody (anti-mouse Alexa-594 IgG in blocking buffer) for 30 minutes at room temperature. Cells were washed twice in PBS for 10 minutes at room temperature. For cell staining with compounds of formula I, 5 μM of the compound of formula I in PBS was added to the cells for 30 minutes at room temperature. Cells were then washed five times for 5 minutes in PBS. Following washing, the cells were mounted onto non-charged microscopy slides using 6 μl Mowiol® per cover slip as mounting media. A Zeiss 880 confocal microscope was used for all the imaging work. [table] Image) Coloc2 software was used to calculate co-localization statistics between the compounds of formula I and the organelle marker images. The background was subtracted from each image and a region of interest (ROI) was used to target the analysis. The point spread function (PSF) of each image was calculated as 2.0 and Coastes' iterations was set to 100. The statistic quantified was the Pearson's Correlation Coefficient (PCC). PCC gives a number ranging from +1 to −1:1=perfect co-localisation; 0=no relationship; and, −1=perfect anti-co-localisation. […]

Data set [3] concerns black-grass cells. Kind of data set: Cytotoxicity assay (FDA/PI) in black-grass cell suspension culture. It is filed as cell-based. As for the experimental part:
5 mL of black-grass cell suspension culture was treated with 0.1, 1, 5, and 10 μM of compound numbers 7, 14, 12 and 15 for 1 hour at room temperature. Cells treated with 0.1% DMSO were used as a control. Cells were irradiated (˜365 nm) for 5 minutes before being incubated at 25° C., 150 rpm for 24 hours. In addition, the cytotoxicity of the compounds without irradiation was also assessed. Cell viability of five biological replicates for each concentration were determined via fluorescence assay (FDA/PI) assay. Percentage of cell viability was calculated using following formulation:
% viability={live cells (FDA)/(live cells+dead cells)}×100
The statistical analysis of percentage of cell viability was performed through one-way analysis of variance (ANOVA) followed by Tukey HSD posthoc test using SPSS 23 (IBM, Chicago, Ill., USA).

Data set [4] has as its system S. epidermidis. Kind of data set: Overnight growth curve (OD 600 nm) cytotoxicity assay, S. epidermidis. It is filed as cell-based, Staphylococcus epidermis. As for the experimental part: A sample of S. epidermidis was taken from a plate culture and inoculated into Luria Broth to culture overnight at 30° C. for approximately 16 hours.
Samples were incubated in darkness at room temperature for approximately 2 hrs. A black clear bottom Costar™-96 well plate was then filled, with 200 μl of sample in each well Cells were irradiated for 5 minutes at approximately 15 mW/cm^2. The cytotoxicity of the compounds without irradiation was also assessed.
The 96 well plate was put into the plate reader and set up to run a growth curve protocol using the following parameters: • Incubation temperature: 37° C. • OD read wavelength 600 nm • 250 cycles, readings every 5 rains • Shaking for 5 s pre-reading
This was left to run overnight to obtain kinetic growth curves based on optical density readings.

Data set [5] concerns S. epidermidis. Kind of data set: Baclight staining (propidium iodide / Syto 9), widefield imaging, S. epidermidis. The class given is cell-based, Staphylococcus epidermis. Particulars: 1 μM. As for the experimental part: Samples prepared according to Table 9 were treated with compounds by diluting 10 mM of stock solution in media to make a 100 μM concentration. This solution was then further diluted 1:10 and 1:100 in media to make 10 μM and 1 μM media solutions containing the compound. 50 μl of cell culture were then added to the 100 μM, 10 μM and 1 μM compound-containing media preparations. Following the treatment outlined in Table 9, each of the three bacterial strains were stained using a Baclight™ staining kit containing separate solutions of Syto™ 9 and Propidium Iodide. One extra sample treated with 0.1 μM of each compound was also included in this assay. M. smegmatis, S. epidermis and B. subtilis were stained with propidium iodide to show non-viable cells and with Syto 9 to show all cells. The following staining procedure was used: • 1. 1 ml of each sample was eluted into a well of a 12-well plate; • 2. One half of the 12 well plate was irradiated at approximately 15 mW/cm^2 for 5 mins; • 3. The content of each well was eluted into separate Eppendorfs and centrifuged at 10,000 r.p.m for 3 rains to form a culture pellet; • 4. Media was then removed, and each pellet resuspended in 200 μl of 1× PBS before being centrifuged at 10,000 r.p.m. for 3 mins. • 5. A preparation of Baclight™-staining solution was made using 1 ml 1× PBS, 3 μl propidium iodide and 3 μl Syto™ 9; • 6. […]

The subject of data set [6] is Bacillus subtilis. Kind of data set: Overnight growth curve (OD 600 nm) cytotoxicity assay, B. subtilis. It is filed as cell-based. As for the experimental part:
A sample of B. subtilis was taken from a plate culture and inoculated into Luria Broth to culture overnight at 37° C. for approximately 16 hours. [table] Samples were incubated in darkness at room temperature for approximately 2 hrs. A black clear bottom Costar™-96 well plate was then filled, with 200 μl of sample in each well Cells were irradiated for 5 minutes at approximately 15 mW/cm^2. The cytotoxicity of the compounds without irradiation was also assessed. The 96 well plate was put into the plate reader and set up to run a growth curve protocol using the following parameters: • Incubation temperature: 37° C. • OD read wavelength 600 nm • 250 cycles, readings every 5 rains • Shaking for 5 s pre-reading This was left to run overnight to obtain kinetic growth curves based on optical density readings.

[7] abbreviates: 0.1, 1, 5, 10 μM, with and without ~365 nm irradiation 5 minutes, 24 hours.

Consider `COC(=O)/C=C/c1ccc(C#Cc2ccc(N3CCN(CCC[P+](c4ccccc4)(c4ccccc4)c4ccccc4)CC3)cc2)cc1.[Br-]` [Compound 14, (3-{4-[4-(2-{4-[(1E)-3-methoxy-3-oxoprop-1-en-1-yl]phenyl}ethynyl)phenyl]piperazin-1-yl}propyl)triphenylphosphonium bromide], for which the figures for the “λem(max)/nm” value in data set [1] (DCM) and in data set [1] (Toluene) were 531 nm and 506 nm, respectively. Moreover, the “λabs(max)/nm” value in data set [1] (DCM) is recorded as 361 nm; in data set [1] (Toluene), 367 nm. In data set [2], the “average PCC Value with BODIPY ER-Tracker” value is 0.68. Besides, in data set [3] (1 μM, also in non-irradiation treatment), the black-grass cell viability result is given as “significantly reduced”. In data set [3] (black-grass cells, ~365 nm, 5 minutes), the “dependence of cytotoxic effect on irradiation” value is recorded as “independent of irradiation”.
In the case of `COC(=O)/C=C/c1ccc(C#Cc2ccc(N(C)CCNS(=O)(=O)c3ccc(C)cc3)cc2)cc1` [Compound 15, methyl (2E)-3-{4-[2-(4-{methyl[2-(4-methylbenzenesulfonamido)ethyl]amino}phenyl)ethynyl]phenyl}prop-2-enoate], the entries for the “λem(max)/nm” value in data set [1] (DCM) and in data set [1] (Toluene) were 545 nm and 473 nm, respectively. Moreover, the “λabs(max)/nm” value came to 377 nm in data set [1] (DCM) and 381 nm in data set [1] (Toluene). Besides, the “average PCC Value with BODIPY ER-Tracker” value in data set [2] was 0.30. Besides, the black-grass cell viability entry in data set [3] (setting [7]) is given as “did not reduce black-grass cell viability regardless of concentration or irradiation treatment”.
For `COC(=O)/C=C/c1ccc(C#Cc2ccc(N3CCN(C(C)=O)CC3)cc2)cc1` [Compound 13, methyl (2E)-3-(4-{2-[4-(4-acetylpiperazin-1-yl)phenyl]ethynyl}phenyl) prop-2-enoate], in data set [1] (DCM), the “λem(max)/nm” value is 547 nm and the “λabs(max)/nm” value was 361 nm. Moreover, in data set [1] (Toluene), the “λem(max)/nm” value was 464 nm and the “λabs(max)/nm” value is given as 358 nm. For the same compound, the “average PCC Value with BODIPY ER-Tracker” value in data set [2] is −0.18.
Take `COC(=O)/C=C/c1ccc(C#Cc2ccc(N3CCNCC3)cc2)cc1` [Compound 7, methyl (2E)-3-(4-{2-[4-(piperazin-1-yl)phenyl]ethynyl}phenyl)prop-2-enoate]: in data set [1] (DCM), the “λem(max)/nm” value was determined as 563 nm and the “λabs(max)/nm” value was found to be 362 nm. For the same compound, in data set [1] (Toluene), the “λem(max)/nm” value worked out at 504 nm and the “λabs(max)/nm” value is given as 361 nm. In data set [2], the “average PCC Value with BODIPY ER-Tracker” value is reported as 0.32. The black-grass cell viability result in data set [3] (setting [7]) was “did not reduce black-grass cell viability regardless of concentration or irradiation treatment”.
Consider `CC(C)(C)OC(=O)/C=C/c1ccc(C#Cc2ccc(N3CCNCC3)cc2)cc1` [Compound 6, tert-butyl (2E)-3-(4-{2-[4-(piperazin-1-yl)phenyl]ethynyl}phenyl)prop-2-enoate], for which, in data set [4] (1 μM, 405 nm, 5 min, approximately 15 mW/cm^2, untreated lag around 2 hrs), the “lag phase of growth of S. epidermidis, photoactivated” value is “around 15 hrs”. Further, in data set [4] (1 μM, not irradiated), the “growth of S. epidermidis, non-photoactivated” value is on record as “minor impact on growth by extended lag phase”. The “growth of S. epidermidis” value in data set [4] (100 and 10μ concentrations, with or without photoactivation) is “no growth is evident regardless of any photoactivation”. The “non-viable (red, propidium iodide) cells compared with untreated controls” value in data set [5] is reported as “increase in red fluorescent cells”. Besides, the figures for the “λem(max)/nm” value in data set [1] (DCM) and in data set [1] (Toluene) were 550 nm and 482 nm, respectively. The entries for the “λabs(max)/nm” value in data set [1] (DCM) and in data set [1] (Toluene) were 368 nm and 358 nm, respectively. Also, the “growth of B. subtilis” value in data set [6] (10 μM, effect much more significant in the radiated sample) was “growth is reduced and lag time extended”. Further, the “growth of B. subtilis, radiated” value in data set [6] (5 and 1 μM, 405 nm, 5 min) was “some growth inhibition”. The “average PCC Value with BODIPY ER-Tracker” value in data set [2] came to 0.48.
